# Results taken from ChEMBL document CHEMBL3885861, “Open TG-GATES”.
# Organism: Rattus norvegicus
# Experiment: Open TG-GATES - Regimen: Single
# Assay type: toxicity, organism-based, Sprague-Dawley
# Design: regimen Single, gender Male, age 6 weeks
# Conditions: in vivo, ip, 24 h, route intraperitoneal injection; for Bas / Eos / Hb / Ht / Lym / MCH / MCHC / MCV / Mono / Neu / Plat / RBC / Ret / WBC: tissue Blood; for KIDNEY_L / KIDNEY_R / KIDNEY_TOTAL: tissue Kidney; for LIVER: tissue Liver; for A/G / ALP / ALT / AST / BUN / CRE / Ca / Cl / DBIL / GLC / IP / K / LDH / Na / PL / RALB / TBIL / TC / TG / TP / gamma-GTP: tissue Plasma
structure (smiles),measurement,setting,value
CN(N=O)C(N)=O [N-METHYL-N-NITROSUREA],TERMINAL_BW,"0 mg/kg, dose level Control",240.3 g
same,Bas,"0 mg/kg, dose level Control",0%
same,Eos,"0 mg/kg, dose level Control",0.8%
same,Hb,"0 mg/kg, dose level Control",12.5 g/dL
same,Ht,"0 mg/kg, dose level Control",38.8%
same,Lym,"0 mg/kg, dose level Control",78.8%
same,MCH,"0 mg/kg, dose level Control",19.9 pg
same,MCHC,"0 mg/kg, dose level Control",32.4%
same,MCV,"0 mg/kg, dose level Control",61.6 fL
same,Mono,"0 mg/kg, dose level Control",2.4%
same,Neu,"0 mg/kg, dose level Control",17.6%
same,Plat,"0 mg/kg, dose level Control",125.4 x10_4/uL
same,RBC,"0 mg/kg, dose level Control",629.8 x10_4/ul
same,Ret,"0 mg/kg, dose level Control",8.1%
same,WBC,"0 mg/kg, dose level Control",104.4 x10_2/uL
same,KIDNEY_L,"0 mg/kg, dose level Control",1 g
same,KIDNEY_R,"0 mg/kg, dose level Control",1 g
same,KIDNEY_TOTAL,"0 mg/kg, dose level Control",2 g
same,LIVER,"0 mg/kg, dose level Control",11.1 g
same,A/G,"0 mg/kg, dose level Control",1
same,ALP,"0 mg/kg, dose level Control",1557.2 IU/L
same,ALT,"0 mg/kg, dose level Control",41.2 IU/L
same,AST,"0 mg/kg, dose level Control",72.8 IU/L
same,BUN,"0 mg/kg, dose level Control",17.5 mg/dL
same,CRE,"0 mg/kg, dose level Control",0.2 mg/dL
same,Ca,"0 mg/kg, dose level Control",10.7 mg/dL
same,Cl,"0 mg/kg, dose level Control",102.9 meq/L
same,DBIL,"0 mg/kg, dose level Control",0 mg/dL
same,GLC,"0 mg/kg, dose level Control",198 mg/dL
same,IP,"0 mg/kg, dose level Control",7.1 mg/dL
same,K,"0 mg/kg, dose level Control",4.2 meq/L
same,LDH,"0 mg/kg, dose level Control",141.2 IU/L
same,Na,"0 mg/kg, dose level Control",141.4 meq/L
same,PL,"0 mg/kg, dose level Control",160 mg/dL
same,RALB,"0 mg/kg, dose level Control",2.7 g/dL
same,TBIL,"0 mg/kg, dose level Control",0.004 mg/dL
same,TC,"0 mg/kg, dose level Control",79.4 mg/dL
same,TG,"0 mg/kg, dose level Control",135 mg/dL
same,TP,"0 mg/kg, dose level Control",5.6 g/dL
same,gamma-GTP,"0 mg/kg, dose level Control",1 IU/L
same,TERMINAL_BW,"10 mg/kg, dose level Low",233.4 g
same,Bas,"10 mg/kg, dose level Low",0%
same,Eos,"10 mg/kg, dose level Low",0.2%
same,Hb,"10 mg/kg, dose level Low",13 g/dL
same,Ht,"10 mg/kg, dose level Low",39.7%
same,Lym,"10 mg/kg, dose level Low",90.2%
same,MCH,"10 mg/kg, dose level Low",19.9 pg
same,MCHC,"10 mg/kg, dose level Low",32.8%
same,MCV,"10 mg/kg, dose level Low",60.7 fL
same,Mono,"10 mg/kg, dose level Low",2.6%
same,Neu,"10 mg/kg, dose level Low",5.6%
same,Plat,"10 mg/kg, dose level Low",126.2 x10_4/uL
same,RBC,"10 mg/kg, dose level Low",653 x10_4/ul
same,Ret,"10 mg/kg, dose level Low",5.7%
same,WBC,"10 mg/kg, dose level Low",66.8 x10_2/uL
same,KIDNEY_L,"10 mg/kg, dose level Low",1 g
same,KIDNEY_R,"10 mg/kg, dose level Low",1 g
same,KIDNEY_TOTAL,"10 mg/kg, dose level Low",2.1 g
same,LIVER,"10 mg/kg, dose level Low",10.9 g
same,A/G,"10 mg/kg, dose level Low",1
same,ALP,"10 mg/kg, dose level Low",1481.4 IU/L
same,ALT,"10 mg/kg, dose level Low",33.4 IU/L
same,AST,"10 mg/kg, dose level Low",65.8 IU/L
same,BUN,"10 mg/kg, dose level Low",16.9 mg/dL
same,CRE,"10 mg/kg, dose level Low",0.1 mg/dL
same,Ca,"10 mg/kg, dose level Low",10.6 mg/dL
same,Cl,"10 mg/kg, dose level Low",102.9 meq/L
same,DBIL,"10 mg/kg, dose level Low",0.004 mg/dL
same,GLC,"10 mg/kg, dose level Low",198 mg/dL
same,IP,"10 mg/kg, dose level Low",7.2 mg/dL
same,K,"10 mg/kg, dose level Low",4.1 meq/L
same,LDH,"10 mg/kg, dose level Low",138.4 IU/L
same,Na,"10 mg/kg, dose level Low",141 meq/L
same,PL,"10 mg/kg, dose level Low",167.6 mg/dL
same,RALB,"10 mg/kg, dose level Low",2.9 g/dL
same,TBIL,"10 mg/kg, dose level Low",0.01 mg/dL
same,TC,"10 mg/kg, dose level Low",85.6 mg/dL
same,TG,"10 mg/kg, dose level Low",118.8 mg/dL
same,TP,"10 mg/kg, dose level Low",5.7 g/dL
same,gamma-GTP,"10 mg/kg, dose level Low",0.8 IU/L
same,TERMINAL_BW,"30 mg/kg, dose level Middle",227.7 g
same,Bas,"30 mg/kg, dose level Middle",0%
same,Eos,"30 mg/kg, dose level Middle",0%
same,Hb,"30 mg/kg, dose level Middle",11.8 g/dL
same,Ht,"30 mg/kg, dose level Middle",35.8%
same,Lym,"30 mg/kg, dose level Middle",80.2%
same,MCH,"30 mg/kg, dose level Middle",20.8 pg
same,MCHC,"30 mg/kg, dose level Middle",32.9%
same,MCV,"30 mg/kg, dose level Middle",63.3 fL
same,Mono,"30 mg/kg, dose level Middle",3.2%
same,Neu,"30 mg/kg, dose level Middle",15.4%
same,Plat,"30 mg/kg, dose level Middle",127.5 x10_4/uL
same,RBC,"30 mg/kg, dose level Middle",566 x10_4/ul
same,Ret,"30 mg/kg, dose level Middle",4.9%
same,WBC,"30 mg/kg, dose level Middle",34.5 x10_2/uL
same,KIDNEY_L,"30 mg/kg, dose level Middle",1 g
same,KIDNEY_R,"30 mg/kg, dose level Middle",1 g
same,KIDNEY_TOTAL,"30 mg/kg, dose level Middle",2 g
same,LIVER,"30 mg/kg, dose level Middle",9.9 g
same,A/G,"30 mg/kg, dose level Middle",0.9
same,ALP,"30 mg/kg, dose level Middle",1270.8 IU/L
same,ALT,"30 mg/kg, dose level Middle",35.2 IU/L
same,AST,"30 mg/kg, dose level Middle",70 IU/L
same,BUN,"30 mg/kg, dose level Middle",17.6 mg/dL
same,CRE,"30 mg/kg, dose level Middle",0.1 mg/dL
same,Ca,"30 mg/kg, dose level Middle",10.4 mg/dL
same,Cl,"30 mg/kg, dose level Middle",103.6 meq/L
same,DBIL,"30 mg/kg, dose level Middle",0.01 mg/dL
same,GLC,"30 mg/kg, dose level Middle",196 mg/dL
same,IP,"30 mg/kg, dose level Middle",8.3 mg/dL
same,K,"30 mg/kg, dose level Middle",3.9 meq/L
same,LDH,"30 mg/kg, dose level Middle",151 IU/L
same,Na,"30 mg/kg, dose level Middle",141.8 meq/L
same,PL,"30 mg/kg, dose level Middle",150.4 mg/dL
same,RALB,"30 mg/kg, dose level Middle",2.7 g/dL
same,TBIL,"30 mg/kg, dose level Middle",0.022 mg/dL
same,TC,"30 mg/kg, dose level Middle",82.6 mg/dL
same,TG,"30 mg/kg, dose level Middle",51.7 mg/dL
same,TP,"30 mg/kg, dose level Middle",5.6 g/dL
same,gamma-GTP,"30 mg/kg, dose level Middle",1 IU/L
same,TERMINAL_BW,"100 mg/kg, dose level High",207.9 g
same,Bas,"100 mg/kg, dose level High",0%
same,Eos,"100 mg/kg, dose level High",0%
same,Hb,"100 mg/kg, dose level High",13.8 g/dL
same,Ht,"100 mg/kg, dose level High",41.1%
same,Lym,"100 mg/kg, dose level High",14.2%
same,MCH,"100 mg/kg, dose level High",20.5 pg
same,MCHC,"100 mg/kg, dose level High",33.5%
same,MCV,"100 mg/kg, dose level High",61.1 fL
same,Mono,"100 mg/kg, dose level High",3.2%
same,Neu,"100 mg/kg, dose level High",82%
same,Plat,"100 mg/kg, dose level High",117.5 x10_4/uL
same,RBC,"100 mg/kg, dose level High",673.6 x10_4/ul
same,Ret,"100 mg/kg, dose level High",4.4%
same,WBC,"100 mg/kg, dose level High",13.1 x10_2/uL
same,KIDNEY_L,"100 mg/kg, dose level High",1 g
same,KIDNEY_R,"100 mg/kg, dose level High",1 g
same,KIDNEY_TOTAL,"100 mg/kg, dose level High",1.9 g
same,LIVER,"100 mg/kg, dose level High",9.7 g
same,A/G,"100 mg/kg, dose level High",1
same,ALP,"100 mg/kg, dose level High",1181 IU/L
same,ALT,"100 mg/kg, dose level High",28.6 IU/L
same,AST,"100 mg/kg, dose level High",113 IU/L
same,BUN,"100 mg/kg, dose level High",16.2 mg/dL
same,CRE,"100 mg/kg, dose level High",0.1 mg/dL
same,Ca,"100 mg/kg, dose level High",10.3 mg/dL
same,Cl,"100 mg/kg, dose level High",101.6 meq/L
same,DBIL,"100 mg/kg, dose level High",0.01 mg/dL
same,GLC,"100 mg/kg, dose level High",197.8 mg/dL
same,IP,"100 mg/kg, dose level High",8.2 mg/dL
same,K,"100 mg/kg, dose level High",3.6 meq/L
same,LDH,"100 mg/kg, dose level High",166.4 IU/L
same,Na,"100 mg/kg, dose level High",142.3 meq/L
same,PL,"100 mg/kg, dose level High",150.4 mg/dL
same,RALB,"100 mg/kg, dose level High",2.7 g/dL
same,TBIL,"100 mg/kg, dose level High",0.016 mg/dL
same,TC,"100 mg/kg, dose level High",75.8 mg/dL
same,TG,"100 mg/kg, dose level High",59.3 mg/dL
same,TP,"100 mg/kg, dose level High",5.4 g/dL
same,gamma-GTP,"100 mg/kg, dose level High",0.7 IU/L
